Calls of active or inactive are those of the source.
Legend:
Cytochrome P450 3A4 = Cytochrome P450 3A4 (Homo sapiens, UniProt P08684);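 note: CYP3A4 tested as one member of a cytochrome P450 panel screen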
Cytochrome P450 2C19 = Cytochrome P450 2C19 (Homo sapiens, UniProt P33261); test: Cytochrome panel assay with activity outcomes. Panel member name: p450-cyp2c19 Compounds with AC50 equal or less than 10 uM are considered active; assay type: functional; settings: read-out: AC50
[1] = target: T1, Polyadenylate-binding protein 1 (Homo sapiens, UniProt P11940); test: MLLE binding blockers, Cy5 peptide tracer – biochemical, fluorescence polarization, Cy5-PAM2 peptide, secondary, miRNA deadenylation inhibitor project, dose response (AID 602260); assay type: functional; settings: read-out: IC50_Mean
[2] = target: T1, Polyadenylate-binding protein 1; test: MLLE domain peptide-binding blockers, IC50 – biochemical, fluorescence polarization, FITC-PAM2 peptide, dose response (AID 602259); assay type: functional; settings: read-out: IC50_Mean
[3] = Luminescence Cell-Based Dose Retest to Confirm Inhibitors of Cancer Stem Cells. [Related pubchem assays (depositor defined):AID2717, AID2721]; assay type: functional; settings: Homo sapiens
[4] = Luminescence Cell-Based Dose Confirmation HTS to Identify Activators of 5'UTR Stem-Loop Driven Alpha-Synuclein mRNA Translation in H4 Neuroglioblastoma Cells. [Related pubchem assays: 1829 (Project Summary), 1814 (Primary HTS)]; assay type: functional
H4 = test: Luminescence Cell-Based Dose Response HTS to Identify Activators of 5'UTR Stem-Loop Driven Prion Protein mRNA Translation in H4 Neuroglioblastoma Cells. [Related pubchem assays: 1829 (Project Summary), 1814 (Primary HTS)]; assay type: functional; settings: Homo sapiens
[5] = Luminescence Cell-Based Dose Response HTS to Identify Activators of Luciferase Translation or Activity in H4 […] Cells. [Related pubchem assays: 1829 (Project Summary), 1814 (Primary HTS)]; assay type: functional
Genome polyprotein = Genome polyprotein (dengue virus type 2, UniProt P29990); test: flavivirus cap methylation enzyme inhibition – biochemical, confirmation dose response, primary screen (AID 588689); assay type: functional
[6] = target: FAD-linked sulfhydryl oxidase ALR (Homo sapiens, UniProt P55789); test: ALR-catalysed DTT oxidation blockers – biochemical, H2O2 detection, luminescence, cherry-pick, dose response (AID 493248)
[7] = target: T2, Rac GTPase-activating protein 1 (Homo sapiens, UniProt Q9H0H5); test: blockers of MgcRacGAP-driven Rac1 GTP hydrolysis – biochemical, ADP Hunter fluorescence, primary and confirmatory, confirmation (AID 624330); assay type: functional
T2 sequence (Q9H0H5 whole entry): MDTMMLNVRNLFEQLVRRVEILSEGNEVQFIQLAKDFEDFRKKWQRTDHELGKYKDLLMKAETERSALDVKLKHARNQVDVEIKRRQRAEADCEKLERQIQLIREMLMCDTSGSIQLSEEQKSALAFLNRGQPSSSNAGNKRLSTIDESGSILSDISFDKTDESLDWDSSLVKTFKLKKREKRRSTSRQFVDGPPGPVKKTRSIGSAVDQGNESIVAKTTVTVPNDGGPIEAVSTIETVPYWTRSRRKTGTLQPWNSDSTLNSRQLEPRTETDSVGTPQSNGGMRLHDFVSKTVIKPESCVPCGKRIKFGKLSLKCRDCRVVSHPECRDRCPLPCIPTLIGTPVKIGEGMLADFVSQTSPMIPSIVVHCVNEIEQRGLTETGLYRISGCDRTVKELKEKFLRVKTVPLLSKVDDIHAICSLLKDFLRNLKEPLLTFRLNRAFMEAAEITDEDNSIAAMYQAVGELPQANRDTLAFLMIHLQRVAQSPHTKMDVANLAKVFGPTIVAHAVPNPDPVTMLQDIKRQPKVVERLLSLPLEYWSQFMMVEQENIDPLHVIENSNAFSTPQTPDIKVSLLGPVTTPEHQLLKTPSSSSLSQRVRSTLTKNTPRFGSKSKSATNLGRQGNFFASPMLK

Cytochrome P450 2C9 = Cytochrome P450 2C9 (Homo sapiens, UniProt P11712)
P388/ADR = test: cells; assay type: functional; settings: Mus musculus
SN12K1 = test: cells; assay type: functional; settings: Homo sapiens
P388 = test: cells; assay type: functional; settings: Mus musculus

T1 sequence (P11940 whole entry, the tested form may be a part): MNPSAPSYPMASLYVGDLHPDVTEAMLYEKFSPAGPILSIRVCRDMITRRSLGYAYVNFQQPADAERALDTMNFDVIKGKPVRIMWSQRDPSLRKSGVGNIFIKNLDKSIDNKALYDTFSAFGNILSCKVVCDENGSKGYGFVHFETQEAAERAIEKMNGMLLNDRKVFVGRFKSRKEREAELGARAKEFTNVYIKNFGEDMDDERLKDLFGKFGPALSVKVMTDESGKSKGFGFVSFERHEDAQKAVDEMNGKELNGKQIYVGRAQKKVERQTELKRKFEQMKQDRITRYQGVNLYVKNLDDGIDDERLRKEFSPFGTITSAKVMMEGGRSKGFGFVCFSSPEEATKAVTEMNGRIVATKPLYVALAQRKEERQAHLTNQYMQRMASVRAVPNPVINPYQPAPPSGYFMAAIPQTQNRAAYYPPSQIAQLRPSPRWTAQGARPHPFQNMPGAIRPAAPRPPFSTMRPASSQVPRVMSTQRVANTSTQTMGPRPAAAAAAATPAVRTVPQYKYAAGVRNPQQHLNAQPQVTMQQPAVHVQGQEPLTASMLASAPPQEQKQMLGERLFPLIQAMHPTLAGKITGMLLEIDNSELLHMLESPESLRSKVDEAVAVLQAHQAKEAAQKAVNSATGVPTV
Chain of Cytochrome P450 2C19 (P33261 whole entry): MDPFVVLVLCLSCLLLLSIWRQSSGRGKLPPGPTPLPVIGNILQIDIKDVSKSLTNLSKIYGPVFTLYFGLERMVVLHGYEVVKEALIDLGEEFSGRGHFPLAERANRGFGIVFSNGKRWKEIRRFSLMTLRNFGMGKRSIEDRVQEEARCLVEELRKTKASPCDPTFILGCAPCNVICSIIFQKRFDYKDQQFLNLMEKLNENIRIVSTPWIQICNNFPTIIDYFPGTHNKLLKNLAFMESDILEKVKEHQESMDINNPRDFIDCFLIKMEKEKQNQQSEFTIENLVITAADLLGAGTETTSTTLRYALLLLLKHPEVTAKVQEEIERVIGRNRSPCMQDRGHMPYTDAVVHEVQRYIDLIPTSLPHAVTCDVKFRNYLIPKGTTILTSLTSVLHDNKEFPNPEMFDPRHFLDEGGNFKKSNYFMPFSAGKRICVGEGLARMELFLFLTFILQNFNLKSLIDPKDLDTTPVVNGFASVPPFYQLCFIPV
Chain of Genome polyprotein (P29990 2492-3391 limits assumed): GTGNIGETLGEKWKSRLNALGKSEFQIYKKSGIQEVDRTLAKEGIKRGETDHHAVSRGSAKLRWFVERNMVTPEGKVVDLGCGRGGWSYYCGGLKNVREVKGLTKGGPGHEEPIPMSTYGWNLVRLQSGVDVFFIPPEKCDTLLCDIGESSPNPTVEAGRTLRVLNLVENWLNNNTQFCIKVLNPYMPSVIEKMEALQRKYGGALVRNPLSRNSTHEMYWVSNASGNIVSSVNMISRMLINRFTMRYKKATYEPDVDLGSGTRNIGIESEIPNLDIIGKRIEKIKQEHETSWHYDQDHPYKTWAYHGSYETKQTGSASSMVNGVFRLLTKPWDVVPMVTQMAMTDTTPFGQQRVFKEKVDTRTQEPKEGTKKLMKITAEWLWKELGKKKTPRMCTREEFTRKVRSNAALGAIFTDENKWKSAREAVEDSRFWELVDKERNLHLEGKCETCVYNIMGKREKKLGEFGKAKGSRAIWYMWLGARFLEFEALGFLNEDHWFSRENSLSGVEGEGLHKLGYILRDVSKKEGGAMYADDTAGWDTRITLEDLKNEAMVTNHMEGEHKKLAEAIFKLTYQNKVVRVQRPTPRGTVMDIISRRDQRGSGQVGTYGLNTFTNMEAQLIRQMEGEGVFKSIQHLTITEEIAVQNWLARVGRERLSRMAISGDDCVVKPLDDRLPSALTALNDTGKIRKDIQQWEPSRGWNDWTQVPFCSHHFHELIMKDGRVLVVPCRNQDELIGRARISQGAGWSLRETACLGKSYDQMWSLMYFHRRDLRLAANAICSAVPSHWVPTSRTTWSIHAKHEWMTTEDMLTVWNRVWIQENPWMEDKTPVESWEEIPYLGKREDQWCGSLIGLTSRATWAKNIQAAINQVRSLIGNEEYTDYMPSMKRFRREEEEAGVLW
Chain of Cytochrome P450 2C9 (P11712 whole entry): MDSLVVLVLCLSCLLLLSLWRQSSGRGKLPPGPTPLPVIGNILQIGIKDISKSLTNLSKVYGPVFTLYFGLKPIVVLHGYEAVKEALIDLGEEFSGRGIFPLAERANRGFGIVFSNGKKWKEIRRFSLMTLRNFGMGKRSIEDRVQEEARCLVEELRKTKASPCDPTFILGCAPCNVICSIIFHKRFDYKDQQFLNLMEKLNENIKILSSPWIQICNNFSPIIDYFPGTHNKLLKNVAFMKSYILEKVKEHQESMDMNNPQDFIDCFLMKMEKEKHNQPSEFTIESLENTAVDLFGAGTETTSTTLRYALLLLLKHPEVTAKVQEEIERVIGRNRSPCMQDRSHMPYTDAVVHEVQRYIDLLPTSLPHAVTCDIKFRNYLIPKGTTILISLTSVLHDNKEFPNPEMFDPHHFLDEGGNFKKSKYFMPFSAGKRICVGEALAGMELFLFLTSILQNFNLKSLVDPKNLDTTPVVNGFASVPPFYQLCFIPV
Chain of FAD-linked sulfhydryl oxidase ALR (P55789 whole entry): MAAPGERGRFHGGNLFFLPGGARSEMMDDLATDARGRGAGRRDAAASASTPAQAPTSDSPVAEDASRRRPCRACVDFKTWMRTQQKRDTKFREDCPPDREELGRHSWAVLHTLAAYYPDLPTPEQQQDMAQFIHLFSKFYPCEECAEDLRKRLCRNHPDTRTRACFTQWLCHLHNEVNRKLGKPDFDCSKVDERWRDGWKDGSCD
Chain of Cytochrome P450 3A4 (P08684 whole entry): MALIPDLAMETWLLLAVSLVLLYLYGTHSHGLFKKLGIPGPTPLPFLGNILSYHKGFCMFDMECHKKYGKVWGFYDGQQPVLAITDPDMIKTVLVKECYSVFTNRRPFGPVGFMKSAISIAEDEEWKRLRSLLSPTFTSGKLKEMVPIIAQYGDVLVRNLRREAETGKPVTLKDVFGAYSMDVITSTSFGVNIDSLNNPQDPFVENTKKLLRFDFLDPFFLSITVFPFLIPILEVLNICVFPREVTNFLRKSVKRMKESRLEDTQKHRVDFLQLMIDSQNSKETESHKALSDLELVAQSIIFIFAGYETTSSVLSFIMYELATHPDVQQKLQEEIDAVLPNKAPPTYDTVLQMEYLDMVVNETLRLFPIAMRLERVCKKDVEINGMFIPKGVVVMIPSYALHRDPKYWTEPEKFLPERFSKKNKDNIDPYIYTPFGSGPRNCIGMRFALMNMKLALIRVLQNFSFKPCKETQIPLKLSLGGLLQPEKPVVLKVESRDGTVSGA

## NC(=O)c1ccc(N2CCCCC2)c(N2C(=O)C3CC=CCC3C2=O)c1 (stereo not drawn)
Cytochrome P450 3A4
  AC50: 25.1 µM (inconclusive)
Cytochrome P450 2C19
  AC50: 39.8 µM (inconclusive)

## O=C(CSC1=Nc2ccccc2C2=NC(CC(=O)NC3CCCCC3)C(=O)N12)NCc1ccco1 (stereo not drawn)
[1]
  IC50: > 66 µM (inactive)
[2]
  IC50: 31.2 µM (inactive)

## C[C@H]1CN([C@@H](C)CO)C(=O)Cc2cc(NC(=O)CCC(F)(F)F)ccc2O[C@H]1CN(C)Cc1ccc(-c2ccccc2)cc1
[3]
  AC50: 4.88 µM (active)

## CC(=O)NC1=C(C#N)C(c2ccccc2)c2c(ccc3ccccc23)O1 (stereo not drawn)
[3]
  AC50: 0.733 µM (active)

## O=C(CCl)Nc1cccc(S(=O)(=O)NC2=NCCC2)c1
[4]
  EC50: 45.1 µM (active)
H4
  EC50: > 120 µM (not active)
[5]
  EC50: 62.6 µM (active)

## O=C1NC(=O)C(=Cc2cccc(OCCOc3ccccc3)c2)C(=O)N1
Genome polyprotein
  IC50: 51.2 µM (active)

## COc1ccc(NC2CCCN(C(=O)c3csc(C(C)C)n3)C2)cc1 (stereo not drawn)
[6]
  AC50: 0.226 µM (active)
[7]
  IC50: 139 µM (active)

## CC(C)c1ccc(NC2CCCN(C(=O)C3=NN(C)C(=O)CC3)C2)cc1 (stereo not drawn)
[6]
  AC50: 27.7 µM (active)

## Cc1cc(SCNC(=O)c2ccccc2)nc(C(C)C)n1
[1]
  IC50: > 66 µM (inactive)
[2]
  IC50: > 66 µM (inactive)

## COc1ccc(C(=O)OCc2csc(C)n2)c(O)c1
[4]
  EC50: 40.5 µM (active)
H4
  EC50: 79.1 µM (active)
[5]
  EC50: > 120 µM (not active)

## CCOP(=O)(CN(CC)CCNP(=O)(OCC)OCC)OCC
Cytochrome P450 2C9
  AC50: 0.126 µM (inconclusive)
Cytochrome P450 2C19
  AC50: 39.8 µM (inconclusive)

## CC(=O)Nc1ccc(S(=O)(=O)N/N=C/c2ccc(C)s2)cc1
[4]
  EC50: 5.39 µM (active)
H4
  EC50: 53.5 µM (active)
[5]
  EC50: 33.8 µM (active)

## Cc1cc(/C=C(\C#N)C(=O)NCC2CCCO2)c(C)n1-c1ccc(Cl)cc1 (stereo not drawn)
[4]
  EC50: 10 µM (active)
H4
  EC50: 8.94 µM (active)
[5]
  EC50: 30.1 µM (active)

## O=C(CN(c1ccc(Cl)cc1)S(=O)(=O)c1ccc(Cl)c([N+](=O)[O-])c1)NCCc1ccc(F)cc1
[3]
  AC50: 2.15 µM (active)

## Cc1cc(C)nc(Nc2n[nH]c(COc3ccccc3)n2)n1
[4]
  EC50: 4.85 µM (active)
H4
  EC50: > 120 µM (not active)
[5]
  EC50: 21.8 µM (active)

## COc1ccc(C(C2C(=O)CC(C)(C)CC2=O)C2C(=O)CC(C)(C)CC2=O)cc1COCC(F)(F)F
Genome polyprotein
  IC50: 27.7 µM (active)

## CCOC(=O)c1c(NC(=O)c2ccccc2)sc2c1CCc1ccccc1-2
[1]
  IC50: > 66 µM (inactive)
[2]
  IC50: > 66 µM (inactive)

## CC(C)CCCC(C)[C@H]1CCC(C2C[C@@H](O)[C@@H]3CC(O)[C@@H](O)C[C@]3(CO)C2=O)[C@]1(C)CCO (stereo partly drawn)
P388/ADR
  GI50: 27 µM (inactive)
SN12K1
  GI50: 18.7 µM (inactive)
P388
  GI50: 17.5 µM (inactive)

## Cc1nc2cc(NC(=O)CSc3nc4c(C)cccc4cc3C#N)ccc2s1
Cytochrome P450 2C9
  AC50: 3.55 µM (inconclusive)
Cytochrome P450 2C19
  AC50: 0.251 µM (inconclusive)

From ChEMBL document CHEMBL1201862, “PubChem BioAssay data set” (2004)
